The record followed here is ChEMBL document CHEMBL1201862, “PubChem BioAssay data set” (2004).

Each structure is given as a SMILES string.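 Compound exposure: 48 hours, 5 concentrations, 96-well plates. At the GI50, growth is halved.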 Calls of active or inactive are those of the source. Rule as the data show it: active = GI50 up to about 1.1 µM and inactive = higher.

Some test systems named below: OVCAR-5; OVCAR-8; COLO 205; SF-268; SK-MEL-5; A549; SR; CCRF-CEM; NCI-H522; LXFL 529; EKVX; CAKI-1; OVCAR-4; HCC 2998.
Common to all, as to assay: NCI-60 cell line screen, 48 h

As to `S=C(N/N=C/c1ccccc1)NC12CC3CC(CC(C3)C1)C2`, the GI50 with OVCAR-5 was 63.7 µM (inactive); in the test on OVCAR-8 it was 60 µM (inactive); in the test on COLO 205, 27 µM (inactive); with SF-268, 31.9 µM (inactive); with SK-MEL-5 it was 27.2 µM (inactive); in the test with A549, 27.8 µM (inactive). The GI50 was 18.2 µM (inactive) with SR; 19.6 µM (inactive) in the test with CCRF-CEM; 29.5 µM (inactive) in the test on NCI-H522; 64.7 µM (inactive) in the test with LXFL 529; 71.4 µM (inactive) in the test with EKVX; 49.3 µM (inactive) in the test with CAKI-1. Besides, the GI50 in the test on OVCAR-4 was 42.2 µM (inactive).
Consider `CC(=O)C(CN(C)C)C(c1ccccc1)c1c(O)c2ccccc2oc1=O` (configuration not stated), for which the GI50 in the test with OVCAR-5, with OVCAR-8, in the test with COLO 205, in the test on SF-268, with SK-MEL-5 and in the test with A549 was > 100 µM (inactive) in each case. For the same compound, the GI50 in the test with SR, in the test on CCRF-CEM, in the test on NCI-H522, with HCC 2998, in the test on LXFL 529 and in the test with EKVX was > 100 µM (inactive) in each case. In addition, the GI50 with CAKI-1 and in the test on OVCAR-4 was > 100 µM (inactive) each time.
As to `CC(=O)OCCOCNC(=S)N/N=C(\C)c1cnc2ccccc2n1`, the GI50 in the test with OVCAR-5 is 7.91 µM (inactive); in the test on OVCAR-8, 33.9 µM (inactive); in the test with COLO 205, 20.1 µM (inactive); with SF-268 it was 10.4 µM (inactive); in the test with SK-MEL-5, 25.1 µM (inactive); in the test with A549, 26.6 µM (inactive). Besides, the GI50 in the test on SR is > 100 µM (inactive); with CCRF-CEM, 7.46 µM (inactive); in the test on NCI-H522, 21.9 µM (inactive); in the test with HCC 2998, 32.7 µM (inactive); in the test with LXFL 529, 30.8 µM (inactive); in the test with EKVX, 8.53 µM (inactive). The GI50 with OVCAR-4 is 57.1 µM (inactive).
Turning to `CCOC(=O)C1=C(NC)OCC1=O`, the GI50 in the test on OVCAR-5, in the test with OVCAR-8, in the test with COLO 205, in the test with SF-268, with SK-MEL-5 and in the test with A549 was > 100 µM (inactive) in each case. For the same compound, the GI50 in the test with CCRF-CEM, in the test with NCI-H522, in the test on HCC 2998, in the test with LXFL 529, in the test on EKVX and with CAKI-1 was > 100 µM (inactive) each time. For the same compound, the GI50 in the test on OVCAR-4 is > 100 µM (inactive).
For `CCOC(=O)/C=C/n1c2ccccc2c(=O)c2cc(OC)ccc21`, the GI50 in the test with OVCAR-5, in the test with OVCAR-8, in the test on COLO 205, in the test with SF-268, with SK-MEL-5 and in the test on A549 was > 100 µM (inactive) throughout. Also, the GI50 in the test on SR was 28.2 µM (inactive); in the test with CCRF-CEM it was 50.8 µM (inactive); in the test on NCI-H522 it was 54.2 µM (inactive); with HCC 2998, > 100 µM (inactive); in the test with LXFL 529, > 100 µM (inactive); in the test with EKVX, > 100 µM (inactive). The GI50 with CAKI-1 and in the test with OVCAR-4 was > 100 µM (inactive) in each case.
On to `COC(=O)[C@H](Cc1ccccc1)NC(=O)/C(=C/C(C)C)NC(=O)[C@H](CCSC)NC=O`, for which the GI50 in the test with OVCAR-8, in the test on COLO 205, with SF-268, with SK-MEL-5, in the test on A549 and in the test with SR was > 100 µM (inactive) each time. The GI50 with CCRF-CEM, in the test with NCI-H522, in the test with HCC 2998, with LXFL 529, with EKVX and in the test with CAKI-1 was > 100 µM (inactive) throughout. The GI50 in the test with OVCAR-4 is > 100 µM (inactive).
On to `O=C(Cc1ccccc1)NN1C(=O)C(Cl)C1c1ccc(Cl)cc1` (configuration not stated), for which the GI50 in the test on OVCAR-5, in the test on OVCAR-8, in the test with COLO 205, in the test with SF-268, in the test on SK-MEL-5 and in the test with A549 was > 100 µM (inactive) in each case. The GI50 in the test with SR was 24.1 µM (inactive); in the test on CCRF-CEM, > 100 µM (inactive); in the test with NCI-H522 it was > 100 µM (inactive); in the test with HCC 2998, > 100 µM (inactive); in the test on LXFL 529 it was > 100 µM (inactive); with EKVX it was > 100 µM (inactive). Besides, the GI50 in the test with CAKI-1 and in the test on OVCAR-4 was > 100 µM (inactive) in each case.
In the case of `COc1cc([C@@H]2c3cc4c(cc3[C@@H](NC(=O)c3ccc(C#N)cc3)C3COC(=O)[C@@H]32)OCO4)cc(OC)c1O` (some centres not stated), the GI50 with OVCAR-5 is 0.794 µM (active); with OVCAR-8, 0.719 µM (active); in the test with COLO 205 it was 2.94 µM (inactive); in the test on SF-268, 0.847 µM (active); in the test on SK-MEL-5, 0.743 µM (active); in the test with A549, < 0.01 µM (active). In addition, the GI50 in the test with CCRF-CEM is 0.0803 µM (active); in the test with NCI-H522, 0.451 µM (active); with HCC 2998 it was 1.6 µM (inactive); with LXFL 529 it was 4.61 µM (inactive); with EKVX, 0.979 µM (active); in the test on CAKI-1 it was 1.14 µM (inactive). Moreover, the GI50 in the test on OVCAR-4 is 8.93 µM (inactive).
With `CN1C/C(=C\c2ccc(C(=O)O)cc2)C(=O)/C(=C/c2ccc(C(=O)O)cc2)C1`, the GI50 in the test with OVCAR-5, in the test with OVCAR-8, in the test on COLO 205, in the test with SF-268, with SK-MEL-5 and in the test with A549 was > 100 µM (inactive) each time. The GI50 in the test with SR, in the test with CCRF-CEM, in the test on HCC 2998, in the test on LXFL 529, in the test with EKVX and in the test on CAKI-1 was > 100 µM (inactive) each time. Moreover, the GI50 in the test on OVCAR-4 is > 100 µM (inactive).
For `CN(C)CC1(Cc2ccccc2)CC/C(=C\c2ccccc2)C1=O` (configuration not stated), the GI50 in the test with OVCAR-5 was 40.6 µM (inactive); in the test on OVCAR-8, 34.5 µM (inactive); in the test with COLO 205, 32.9 µM (inactive); in the test with SF-268, 61 µM (inactive); in the test with SK-MEL-5, 22.5 µM (inactive); in the test on A549, 96.4 µM (inactive). Moreover, the GI50 in the test on SR is 34 µM (inactive); in the test with CCRF-CEM, 27 µM (inactive); with NCI-H522 it was 15.2 µM (inactive); in the test on HCC 2998, 19.9 µM (inactive); in the test on LXFL 529, 37.2 µM (inactive); with CAKI-1, 49.1 µM (inactive). Further, the GI50 in the test on OVCAR-4 is 51.3 µM (inactive).
Consider `COC(=O)C1=C(OC)c2cc3c(cc2C(c2cc(OC)c(OC)c(OC)c2)C1C(=O)OC)OCO3` (configuration not stated), for which the GI50 with OVCAR-5 is > 100 µM (inactive); in the test on OVCAR-8, 79.3 µM (inactive); with COLO 205 it was 38.7 µM (inactive); with SF-268 it was > 100 µM (inactive); with SK-MEL-5, > 100 µM (inactive); in the test on A549, > 100 µM (inactive). The GI50 in the test on SR is 96.4 µM (inactive); with CCRF-CEM it was > 100 µM (inactive); in the test on HCC 2998 it was > 100 µM (inactive); with LXFL 529 it was > 100 µM (inactive); with EKVX, > 100 µM (inactive); in the test with CAKI-1, > 100 µM (inactive). In addition, the GI50 in the test with OVCAR-4 is > 100 µM (inactive).
Turning to `CP(=O)(CCSc1ccccc1)c1ccccc1` (configuration not stated), the GI50 in the test on OVCAR-8, with COLO 205, in the test on SF-268, in the test on SK-MEL-5, in the test on A549 and in the test on SR was > 100 µM (inactive) throughout. Moreover, the GI50 with CCRF-CEM, in the test on HCC 2998, in the test with LXFL 529, with EKVX, with CAKI-1 and in the test on OVCAR-4 was > 100 µM (inactive) in each case.
In the case of `C/C(=N\NC(=S)Nc1ccc([N+](=O)[O-])cc1S(=O)(=O)O)c1ccccn1`, the GI50 was 39.9 µM (inactive) with OVCAR-5; 34.3 µM (inactive) in the test with OVCAR-8; 36.5 µM (inactive) in the test with COLO 205; 95.3 µM (inactive) in the test on SF-268; 57.8 µM (inactive) with SK-MEL-5; 37.7 µM (inactive) in the test with A549. The GI50 in the test with SR was 32.6 µM (inactive); with CCRF-CEM it was 39.9 µM (inactive); with HCC 2998 it was 30.9 µM (inactive); with LXFL 529, 61 µM (inactive); in the test on EKVX, 37.9 µM (inactive); in the test with CAKI-1, 52.8 µM (inactive). In addition, the GI50 with OVCAR-4 is 36.8 µM (inactive).
Turning to `c1ccc(N2CCN(CCN3CCc4c([nH]c5ccccc45)C3c3cccnc3)CC2)cc1` (configuration not stated), the GI50 is > 100 µM (inactive) in the test with OVCAR-5; 88.1 µM (inactive) in the test with OVCAR-8; > 100 µM (inactive) in the test on SF-268; > 100 µM (inactive) with SK-MEL-5; > 100 µM (inactive) with A549; > 100 µM (inactive) in the test on SR. In addition, the GI50 with CCRF-CEM, in the test with NCI-H522, with HCC 2998, in the test on LXFL 529, in the test on EKVX and with CAKI-1 was > 100 µM (inactive) throughout. Also, in the test with OVCAR-4, the GI50 is > 100 µM (inactive).
`CC(C)OC(=O)c1cc(NC(=O)C(C)(C)C)c(F)cc1Cl`: the GI50 in the test on OVCAR-5, with OVCAR-8, in the test on COLO 205, with SF-268, in the test on SK-MEL-5 and in the test with A549 was > 100 µM (inactive) in each case. The GI50 with CCRF-CEM, in the test on NCI-H522, in the test on HCC 2998, in the test with LXFL 529, with EKVX and in the test with CAKI-1 was > 100 µM (inactive) in each case. Also, the GI50 in the test with OVCAR-4 is > 100 µM (inactive).
